Results taken from ChEMBL document CHEMBL1201862, “PubChem BioAssay data set” (2004).
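Grown in 96-well plates, cells were treated for 48 hours with each compound at five concentrations. Insufficient inhibition: endpoint recorded as highest concentration tested. GI50 is the concentration that inhibits growth by half.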 The source made the active and inactive calls. Rule as the data show it: active = GI50 up to about 1.1 µM and inactive = higher.

How the values were obtained:
Experiment in all cases: NCI tumour cell line growth inhibition, 48 h
786-0 = test system: 786-0
A498 = test system: A498
A549 = test system: A549
ACHN = test system: ACHN
CAKI-1 = test system: CAKI-1
CCRF-CEM = test system: CCRF-CEM
COLO 205 = test system: COLO 205
DU-145 = test system: DU-145
EKVX = test system: EKVX
HCT-116 = test system: HCT-116
HCT-15 = test system: HCT-15
HL-60 = test system: HL-60
HOP-92 = test system: HOP-92
HT-29 = test system: HT-29
IGROV-1 = test system: IGROV-1
K562 = test system: K562
KM12 = test system: KM12
LOX IMVI = test system: LOX IMVI
M14 = test system: M14
MCF7 = test system: MCF7
MDA-MB-231 = test system: MDA-MB-231
MDA-MB-435 = test system: MDA-MB-435
MDA-N = test system: MDA-N
MOLT-4 = test system: MOLT-4
NCI-H226 = test system: NCI-H226
NCI-H460 = test system: NCI-H460
NCI/ADR-RES = test system: NCI/ADR-RES
OVCAR-3 = test system: OVCAR-3
OVCAR-4 = test system: OVCAR-4
OVCAR-5 = test system: OVCAR-5
OVCAR-8 = test system: OVCAR-8
RXF 393 = test system: RXF 393
SF-295 = test system: SF-295
SF-539 = test system: SF-539
SK-MEL-28 = test system: SK-MEL-28
SK-MEL-2 = test system: SK-MEL-2
SK-MEL-5 = test system: SK-MEL-5
SK-OV-3 = test system: SK-OV-3
SN12C = test system: SN12C
SNB-19 = test system: SNB-19
SNB-75 = test system: SNB-75
SR = test system: SR
SW-620 = test system: SW-620
TK-10 = test system: TK-10
U-251 = test system: U-251
UACC-257 = test system: UACC-257
UACC-62 = test system: UACC-62
UO-31 = test system: UO-31

Measured: GI50

O=c1[nH]c(=O)n(COCCO)c2ccc(Br)cc12
inactive: 786-0 > 100 µM | A498 > 100 µM | A549 > 100 µM | ACHN > 100 µM | CAKI-1 > 100 µM | CCRF-CEM > 100 µM | COLO 205 > 100 µM | DU-145 > 100 µM | EKVX 92.3 µM | HCT-116 > 100 µM | HL-60 > 100 µM | HOP-92 > 100 µM | HT-29 > 100 µM | IGROV-1 77.1 µM | K562 > 100 µM | KM12 > 100 µM | LOX IMVI > 100 µM | M14 > 100 µM | MCF7 > 100 µM | MDA-MB-231 > 100 µM | MDA-MB-435 > 100 µM | MDA-N > 100 µM | MOLT-4 > 100 µM | NCI-H226 25.2 µM | NCI-H460 > 100 µM | NCI/ADR-RES > 100 µM | OVCAR-3 > 100 µM | OVCAR-4 > 100 µM | OVCAR-5 > 100 µM | OVCAR-8 > 100 µM | RXF 393 > 100 µM | SF-295 > 100 µM | SF-539 > 100 µM | SK-MEL-28 > 100 µM | SK-MEL-2 > 100 µM | SK-MEL-5 > 100 µM | SK-OV-3 > 100 µM | SN12C > 100 µM | SNB-19 50.6 µM | SNB-75 39 µM | SR 80.4 µM | SW-620 > 100 µM | TK-10 > 100 µM | U-251 > 100 µM | UACC-257 > 100 µM | UACC-62 > 100 µM | UO-31 74.3 µM
45.9 µM: HCT-15
